This assay concerns L1210 leukemia ip in BDF1 mice, survival T/C. As to the kind of experiment: NCI In Vivo Anticancer Drug Screen. Data for tumor model L1210 Leukemia (intraperitoneal) in B6D2F1 (BDF1) mice. The settings on record: endpoint: mean survival time, higher = longer survival. The procedure, abridged: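 Transplantable tumor model; survival measured in treated vs vehicle control mice. Value = treated/control.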

The mark [1] stands for this setting: dose: 50.0 mg/kg/injection, schedule: Q01DX009 (ip), vehicle: saline with Tween-80.
Where [2] appears, read: dose: 100.0 mg/kg/injection, schedule: Q01DX009 (ip), vehicle: saline with Tween-80.
Where [3] appears, read: dose: 200.0 mg/kg/injection, schedule: Q01DX009 (ip), vehicle: saline with Tween-80.
Setting [4] is: dose: 25.0 mg/kg/injection, schedule: Q01DX009 (ip), vehicle: saline with Tween-80.

Results on ten compounds are retold here after PubChem BioAssay AID248 (DTP/NCI, 2004).

Structures are written as SMILES. “And” between values parts separate entries of the source, which are not always exact repeats. Equal entries are not always repeated. Toxic doses and inconclusive results are not listed.

For `NNS(=O)(=O)CCCCCCCCCCC(=O)O`, the T/C is, setting by setting: under setting [1], 99 % of control; under setting [2], 96 % of control; (dose: 100.0 mg/kg/injection, schedule: Q04DX003 (ip), vehicle: saline with Tween-80) 92 % of control; under setting [3], 91 % of control; (dose: 200.0 mg/kg/injection, schedule: Q04DX003 (ip), vehicle: saline with Tween-80) 90 % of control.

As for `OC(CN(CCCl)CCCl)C(O)C(O)C(O)CN(CCCl)CCCl` (stereo not drawn), the T/C reads like this: (dose: 0.06 mg/kg/injection, schedule: Q01DX Z (ip), vehicle: saline) 102 % of control; (dose: 0.1 mg/kg/injection, schedule: Q01DX Z (ip), vehicle: saline) 102 % of control; (dose: 0.15 mg/kg/injection, schedule: Q01DX Z (ip), vehicle: saline) 105 % of control; (dose: 0.23 mg/kg/injection, schedule: Q01DX Z (ip), vehicle: saline) 110 % of control; (dose: 0.25 mg/kg/injection, schedule: Q01DX Z (ip), vehicle: saline) 103 % of control; (dose: 0.35 mg/kg/injection, schedule: Q01DX001 (ip), vehicle: saline) 150 % of control. Moreover, the T/C (dose: 0.6 mg/kg/injection, schedule: Q01DX Z (ip), vehicle: carboxymethylcellulose (CMC)) was 108 % of control; the T/C (dose: 0.8 mg/kg/injection, schedule: Q01DX001 (ip), vehicle: saline) is 154 % of control; the T/C (dose: 0.8 mg/kg/injection, schedule: Q01DX Z (ip), vehicle: saline) is 153 % of control and 170 % of control; the T/C (dose: 0.9 mg/kg/injection, schedule: Q01DX Z (ip), vehicle: carboxymethylcellulose (CMC)) is 102 % of control; the T/C (dose: 1.0 mg/kg/injection, schedule: Q01DX001 (ip), vehicle: saline) was 122 % of control; the T/C (dose: 1.35 mg/kg/injection, schedule: Q01DX Z (ip), vehicle: carboxymethylcellulose (CMC)) is 96 % of control. The T/C runs as follows: (dose: 1.9 mg/kg/injection, schedule: Q01DX001 (ip), vehicle: saline) 158 % of control; (dose: 2.0 mg/kg/injection, schedule: Q01DX001 (ip), vehicle: saline) 174 % of control; (dose: 2.0 mg/kg/injection, schedule: Q01DX Z (ip), vehicle: saline) 155 % of control and 188 % of control; (dose: 2.03 mg/kg/injection, schedule: Q01DX Z (ip), vehicle: carboxymethylcellulose (CMC)) 118 % of control; (dose: 4.0 mg/kg/injection, schedule: Q01DX001 (ip), vehicle: saline) 152 % of control; (dose: 4.0 mg/kg/injection, schedule: Q01DX Z (ip), vehicle: saline) 117 % of control. In addition, the T/C runs as follows: (dose: 5.0 mg/kg/injection, schedule: Q01DX001 (ip), vehicle: saline) 194 % of control; (dose: 6.7 mg/kg/injection, schedule: Q01DX Z (ip), vehicle: saline) 118 % of control; (dose: 8.0 mg/kg/injection, schedule: Q01DX001 (ip), vehicle: saline) 97 % of control.

Take `CNC(=O)Nc1ccc(Cl)cn1`: the T/C is, setting by setting: under setting [4], 100 % of control; under setting [1], 97 % of control; under setting [2], 98 % of control and 103 % of control.

As to `F[Si](c1ccccc1)(c1ccccc1)c1cccc2ccccc12`, the T/C (dose: 100.0 mg/kg/injection, schedule: Q01DX001 (ip), vehicle: saline with Tween-80) was 96 % of control; the T/C under setting [2] was 98 % of control; the T/C (dose: 200.0 mg/kg/injection, schedule: Q01DX001 (ip), vehicle: saline with Tween-80) is 102 % of control; the T/C under setting [3] was 92 % of control; the T/C (dose: 400.0 mg/kg/injection, schedule: Q01DX001 (ip), vehicle: saline with Tween-80) was 94 % of control; the T/C (dose: 400.0 mg/kg/injection, schedule: Q01DX009 (ip), vehicle: saline with Tween-80) was 93 % of control.

For `Cc1c2ccc3ccccc3c2c[n+]2ccccc12`, the T/C is, setting by setting: (dose: 5.0 mg/kg/injection, schedule: Q01DX009 (ip), vehicle: saline sonified) 102 % of control; (dose: 7.0 mg/kg/injection, schedule: Q01DX009 (ip), vehicle: saline sonified) 116 % of control and 120 % of control; (dose: 10.7 mg/kg/injection, schedule: Q01DX009 (ip), vehicle: saline sonified) 117 % of control; (dose: 11.0 mg/kg/injection, schedule: Q01DX009 (ip), vehicle: saline sonified) 120 % of control; (dose: 15.0 mg/kg/injection, schedule: Q04DX003 (ip), vehicle: Klucel (hydroxypropylcellulose) (HPC)) 108 % of control; (dose: 21.0 mg/kg/injection, schedule: Q04DX003 (ip), vehicle: Klucel (hydroxypropylcellulose) (HPC)) 107 % of control. The T/C by setting is: (dose: 24.0 mg/kg/injection, schedule: Q01DX009 (ip), vehicle: saline sonified) 114 % of control; (dose: 33.0 mg/kg/injection, schedule: Q04DX003 (ip), vehicle: Klucel (hydroxypropylcellulose) (HPC)) 105 % of control; (dose: 48.0 mg/kg/injection, schedule: Q04DX003 (ip), vehicle: Klucel (hydroxypropylcellulose) (HPC)) 111 % of control.

For `O=C(C=C(C(F)(F)F)C(F)(F)F)c1cc(Cl)ccc1Cl`, the T/C runs as follows: (dose: 12.5 mg/kg/injection, schedule: Q01DX009 (ip), vehicle: saline with Tween-80) 110 % of control; (dose: 12.5 mg/kg/injection, schedule: Q04DX003 (ip), vehicle: saline with Tween-80) 97 % of control; under setting [4], 102 % of control; (dose: 25.0 mg/kg/injection, schedule: Q04DX003 (ip), vehicle: saline with Tween-80) 100 % of control; (dose: 50.0 mg/kg/injection, schedule: Q04DX003 (ip), vehicle: saline with Tween-80) 105 % of control.

For the compound `O=C(O)CC(Sc1ccccc1)c1ccccc1` (stereo not drawn), the T/C (dose: 50.0 mg/kg/injection, schedule: Q01DX009 (ip), vehicle: Klucel (hydroxypropylcellulose) (HPC)) was 98 % of control; the T/C (dose: 100.0 mg/kg/injection, schedule: Q01DX009 (ip), vehicle: Klucel (hydroxypropylcellulose) (HPC)) was 101 % of control; the T/C (dose: 177.0 mg/kg/injection, schedule: Q04DX002 (ip), vehicle: saline) was 94 % of control; the T/C (dose: 200.0 mg/kg/injection, schedule: Q01DX009 (ip), vehicle: Klucel (hydroxypropylcellulose) (HPC)) is 96 % of control; the T/C (dose: 266.0 mg/kg/injection, schedule: Q04DX002 (ip), vehicle: saline) is 94 % of control; the T/C (dose: 400.0 mg/kg/injection, schedule: Q04DX002 (ip), vehicle: saline) was 105 % of control. In addition, the T/C (dose: 600.0 mg/kg/injection, schedule: Q04DX002 (ip), vehicle: saline) was 103 % of control.

Regarding `COC1OC(CI)C(OC(C)=O)C(OC(C)=O)C1OS(C)(=O)=O` (stereo not drawn), the T/C is 97 % of control (dose: 100.0 mg/kg/injection, schedule: Q04DX002 (ip), vehicle: Klucel (hydroxypropylcellulose) (HPC)); 106 % of control (dose: 200.0 mg/kg/injection, schedule: Q04DX002 (ip), vehicle: Klucel (hydroxypropylcellulose) (HPC)); 91 % of control (dose: 400.0 mg/kg/injection, schedule: Q04DX002 (ip), vehicle: Klucel (hydroxypropylcellulose) (HPC)).

Take `O=C(COc1ccc(Cl)c(Cl)c1)NCc1cccc(NC(=O)c2cccc(S(=O)(=O)F)c2)c1`: the T/C (dose: 100.0 mg/kg/injection, schedule: Q01DX001 (ip), vehicle: Klucel (hydroxypropylcellulose) (HPC)) is 107 % of control; the T/C (dose: 200.0 mg/kg/injection, schedule: Q01DX001 (ip), vehicle: Klucel (hydroxypropylcellulose) (HPC)) was 98 % of control; the T/C (dose: 400.0 mg/kg/injection, schedule: Q01DX001 (ip), vehicle: Klucel (hydroxypropylcellulose) (HPC)) is 91 % of control.

On to `CCCCCCCCCCCCCCCCCC[N+]1(CC)CCOCC1`, for which the T/C is 103 % of control and 87 % of control (dose: 3.13 mg/kg/injection, schedule: Q04DX002 (ip), vehicle: carboxymethylcellulose (CMC)); 101 % of control (dose: 6.25 mg/kg/injection, schedule: Q01DX001 (ip), vehicle: carboxymethylcellulose (CMC)); 93 % of control and 95 % of control (dose: 6.25 mg/kg/injection, schedule: Q01DX009 (ip), vehicle: carboxymethylcellulose (CMC)); 100 % of control and 92 % of control (dose: 6.25 mg/kg/injection, schedule: Q04DX002 (ip), vehicle: carboxymethylcellulose (CMC)); 98 % of control (dose: 6.25 mg/kg/injection, schedule: Q04DX003 (ip), vehicle: carboxymethylcellulose (CMC)); 94 % of control (dose: 12.5 mg/kg/injection, schedule: Q01DX001 (ip), vehicle: carboxymethylcellulose (CMC)). Further, the T/C reads like this: (dose: 12.5 mg/kg/injection, schedule: Q01DX009 (ip), vehicle: carboxymethylcellulose (CMC)) 93 % of control and 89 % of control; (dose: 12.5 mg/kg/injection, schedule: Q04DX003 (ip), vehicle: carboxymethylcellulose (CMC)) 100 % of control; (dose: 25.0 mg/kg/injection, schedule: Q01DX001 (ip), vehicle: carboxymethylcellulose (CMC)) 90 % of control; (dose: 25.0 mg/kg/injection, schedule: Q04DX002 (ip), vehicle: carboxymethylcellulose (CMC)) 94 % of control and 92 % of control; (dose: 25.0 mg/kg/injection, schedule: Q04DX003 (ip), vehicle: carboxymethylcellulose (CMC)) 89 % of control.
